According to article PMC340942, “Engineered Biosynthesis of Regioselectively Modified Aromatic Polyketides Using Bimodular Polyketide Synthases” (PLoS Biology, 2004):
Converted amounts (≈) assume the structure as drawn.

Tests used:
[1] = molecular target: T1, glucose-6-phosphate translocase (Rattus norvegicus, UniProt F7EWB7); experiment: G6Pase activity assay in intact male rat liver microsomes (colorimetric inorganic phosphate); format: biochemical; conditions: for Inhibition of G6Pase activity of the microsome (Figure 7B): 1 mM glucose-6-phosphate; for Inhibition of G6Pase activity: 10–50 μM range
T1 construct: using intact male rat liver microsomes; tissue BD Gentest (Becton Dickinson); host or cells: male Sprague Dawley rat liver microsomes
T1 sequence (F7EWB7 1-429): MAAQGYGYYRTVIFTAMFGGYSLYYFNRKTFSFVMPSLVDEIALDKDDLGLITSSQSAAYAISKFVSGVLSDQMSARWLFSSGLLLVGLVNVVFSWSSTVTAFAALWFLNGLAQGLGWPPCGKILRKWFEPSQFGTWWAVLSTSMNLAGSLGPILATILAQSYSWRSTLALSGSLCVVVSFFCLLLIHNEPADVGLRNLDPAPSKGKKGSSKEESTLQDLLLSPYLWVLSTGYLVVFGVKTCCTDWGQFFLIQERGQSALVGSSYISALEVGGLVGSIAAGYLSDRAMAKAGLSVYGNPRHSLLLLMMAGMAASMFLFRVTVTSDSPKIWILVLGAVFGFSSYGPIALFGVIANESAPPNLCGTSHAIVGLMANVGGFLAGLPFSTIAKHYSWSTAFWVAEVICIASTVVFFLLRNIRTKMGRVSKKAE
Method: Recently, the natural product mumbaistatin (Figure 7A) was identified as an extremely potent inhibitor (IC50 = 5 nM) of the glucose-6-phosphate translocase enzyme complex, an attractive target for the treatment of Type II diabetes ([Vertesy et al. 2001]). The core of mumbaistatin consists of an anthraquinone moiety that is related to several engineered compounds discussed in this report. For example, the carboxylic acid at position C-1 and the reduced C-9 are identical to those present in compounds DMAC, 8, and 9. We tested the inhibitory activities of some of these polyketides against glucose-6-phosphate translocase using intact male rat liver microsomes.
The integrity of the microsomes was first verified by comparing the glucose-6-phosphatase (G6Pase) activity in the presence of either glucose-6-phosphate or mannose-6-phosphate.
Male rat liver microsome (Sprague Dawley) was purchased from BD Gentest^TM (Becton Dickinson, Franklin Lakes, New Jersey, United States). Aliquots (100 μl, 2 mg/ml) in 0.25 M sucrose were stored at –80°C. Compound stock solutions were prepared in 95% ethanol and diluted with DMSO. Glucose-6-phosphate and mannose-6-phosphate were purchased from Sigma (St. Louis, Missouri, United States).
The integrity of microsomes and G6Pase activity was measured based on the colorimetric reaction of inorganic phosphate as previously reported ([Arion 1989]). The enzyme reaction was initiated by adding 3 μl of microsome to the reaction mixture, which contained 51 μl of assay buffer (50 mM HEPES, 100 mM KCl, 2.5 mM EDTA, 2.5 mM MgCl2, and 1 mM DTT at pH 7.2), 3 μl of glucose-6-phosphate (final concentration, 1 mM), and 3 μl of inhibitor sample in DMSO. The reaction mixture was incubated at room temperature, and 13 μl of reaction mixture was taken every 10 min and quenched with 117 μl of working solution (6:2:1 mixture of 0.42% ammonium molybdate tetrahydrate in 1N H2SO4, 10% SDS in water, and 10% ascorbic acid in water). The blue reduced phosphomolybdate complex is formed after incubation at 50°C for 20 min. The absorbance was measured at 820 nm.

[2] = system: human mammary adenocarcinoma MCF-7 cells; experiment: Cytotoxicity against MCF-7 cells (colorimetric MTT assay); format: cell-based; conditions: MCF7, 120 h, IC50 recorded after 5 d of drug addition, read-out: IC50, cytotoxic activity against MCF-7 cells
Method: As described above, the biosynthetic engineering methods reported here have yielded practical routes for the production of several new as well as known anthraquinone compounds. Given the track record of this family of natural products as pharmacologically active molecules, compounds 3, 4, 9, and DMAC were assayed for cytotoxic activities against human mammary adenocarcinoma MCF-7 cells. Apoptosis was observed after 24 h of drug treatment, and IC50 values were recorded after 5 d of drug addition. […] Thus inserting the hydroxyl group at C-9 results in a 10-fold increase in cytotoxic activity.
The studies were performed as described by Hori et al (1993). The cells were maintained at 37°C and growth was measured with the colorimetric MTT assay after each day. The IC50 values were measured after 5 d.

[3] = Stability of purified compounds at room temperature; format: physicochemical
[4] = molecular target: T1, glucose-6-phosphate translocase; conditions: rat liver microsomes; reference inhibitor, source not given; read-out: IC50, chlorogenic acid used as reference in the G6Pase assay; cited from earlier work
[5] = system: human mammary adenocarcinoma MCF-7 cells; design: method as in Hori et al. 1993; conditions: ref Hori et al. 1993; cited from earlier work
[6] = molecular target: glucose-6-phosphate translocase enzyme complex; design: method as in Vertesy et al. 2001; conditions: ref Vertesy et al. 2001; cited from earlier work

SMILES	Inhibition of G6Pase activity of the microsome (Figure 7B) [1]	Inhibition of G6Pase activity [1]	IC50 [2] [µg/mL]	also measured
Cc1c(C(=O)O)c(O)cc2c1C(=O)c1c(O)cccc1C2=O [DMAC, 3,8-dihydroxy-methylanthraquinone carboxylic acid, reference compound]	No inhibition	not	26.9 (≈ 90.2 µM)	
CCCCC1=C(c2cc(O)cc(=O)o2)C(=O)CC(O)C1 (stereo not shown) [Compound 1]				Stability of the purified compound [3]: slowly dehydrate
O=C(/C=C/c1ccc(O)c(O)c1)O[C@@H]1C[C@](O)(C(=O)O)C[C@@H](O)[C@H]1O [chlorogenic acid]				IC50 [4]: 260 µM
CCCCc1cc(O)cc2c1C(=O)c1c(O)cc(O)cc1C2=O [Compound 5, R1128b]				IC50, cytotoxic activity against MCF-7 cells (natural products) [5]: 9.5 µg/mL (≈ 30.4 µM)
CC(C)CCc1c(C(=O)O)c(O)cc2c1C(=O)c1c(O)cccc1C2=O [Compound 9]	Dose-dependent inhibition	Dose-dependent inhibition	21.7 (≈ 61.2 µM)	
CC(C)CCc1c(C(=O)O)c(O)cc2c1C(=O)c1c(O)cc(O)cc1C2=O [Compound 4]	Dose-dependent inhibition	Dose-dependent inhibition	1.7 (≈ 4.59 µM)	
O=C(O)CC(O)CCC(=O)c1cccc(O)c1C(=O)c1c(C(=O)O)c(O)cc2c1C(=O)c1c(O)cccc1C2=O (stereo not shown) [mumbaistatin]				IC50 [6]: 0.005 µM
CCCCc1c(C(=O)O)c(O)cc2c1C(=O)c1c(O)cccc1C2=O [Compound 8]	Dose-dependent inhibition	Dose-dependent inhibition		
CC(C)CCC1=C(c2cc(O)cc(=O)o2)C(=O)CC(O)C1 (stereo not shown) [Compound 2]				Stability of the purified compound [3]: slowly dehydrate
Cc1c(C(=O)O)c(O)cc2c1C(=O)c1c(O)cc(O)cc1C2=O [Compound 7, 3,6,8-trihydroxy-1-methylanthraquinone-2-carboxylic acid]	No inhibition	not		
CCCCc1c(C(=O)O)c(O)cc2c1C(=O)c1c(O)cc(O)cc1C2=O [Compound 3]	Dose-dependent inhibition	Dose-dependent inhibition	3.4 (≈ 9.54 µM)	
CC(C)CCc1cc(O)cc2c1C(=O)c1c(O)cc(O)cc1C2=O [Compound 6, R1128c]				IC50, cytotoxic activity against MCF-7 cells (natural products) [5]: 6.2 µg/mL (≈ 19 µM)
